Experimental findings from patent US8226972B2, “Vaginal delivery of drugs” (FemmePharma Holding Company, Inc., priority 2001, dated 2012) are described below.

Where a name gives a salt, the structure may show the parent alone.

In one test the test system is urgency incontinence. Kind of test: Example 4: clinical case studies, urgency incontinence / urinary frequency, urgency and nocturia. Format: in vivo, human. The note with it: person; 2 mg orally twice a day. The procedure: A person developed urgency incontinence two years after their laparoscopically assisted vaginal hysterectomy. […] However they experienced side effects, such as dry mouth, from the drug. Two weeks later, they started applying oxybutynin (5 mg) into the vagina at bed time, instead of Ditropan XL. […] The patient used vaginal oxybutynin (5 mg) at bed time for 6 months.
A person with a history of chronic pelvic pain and multiple surgical procedures, including pain mapping under conscious sedation and repair of occult bilateral inguinal hernias, developed urinary frequency, urgency and nocturia. Their urine analysis and urine culture were negative for signs of urinary tract infection. Their treatment began with vaginal oxybutynin (5 mg) once daily, at bed time, applied into the vagina.

Another test relates to bladder. Kind of test: Example 2: bladder contractile response to intra-arterial Ach. The format is in vivo, rabbit. The note with it: high dose of the free base form. From the text: 16 mature female New Zealand white rabbits were separated into two groups of eight. The rabbits in Group 1 received a high dose oxybutynin formulations; and the rabbits in Group 2 received a low dose oxybutynin formulation. For the high dose, 3 grams (g) of oxybutynin HCl were suspended in 6 g of gel (yielding a concentration of 0.5 g Oxybutynin/g gel) and 3 g of the formulation were placed in the vagina. For the low dose, 0.3 g of oxybutynin HCl were suspended in 6 g of gel (yielding a concentration of 0.05 g Oxybutynin/g gel), and 3 g of the formulation were placed in the vagina.
Acetylcholine (Ach), a chemical that causes the bladder muscle (detrusor) to squeeze or contract, was injected through the intra-arterial polyethylene catheter in a volume of 0.31-0.39 mL (i.e., 0.1 mL/kg of rabbit), followed by 0.2 mL of heparinized saline. Change of intravesical pressure following the administration of Ach (10^−6 mol/kg) was monitored by the pressure transducer and recorded on a Grass model 7D polygraph. A 10-minute interval passed between Ach administrations, and three flushes of normal saline, in an amount of 0.1 ml/kg of rabbit, were administered. Three responses to Ach were performed at 10-minute intervals to ensure consistent responses.
After the third Ach administration, the application of the oxybutynin containing gel was administered to the vagina and the responses to Ach were determined at 15-minute intervals for 2 hours. When the response to Ach was reduced, then the time period was extended to 4 hours. At the end of the experiment, a second cystometric curve was generated.
The protocol described in Example 1 was followed in this experiment, with the following changes. The infusion pump was turned on and, at an infusion rate of 1.42 mL/minute, a cystometric curve was generated.

Consider `Cc1ccc(O)c([C@H](CCN(C(C)C)C(C)C)c2ccccc2)c1` [DETROL®, tolterodine tartrate], for which the “improvement of urgency incontinence” value in the test on urgency incontinence is on record as “slight improvement”.
`CCN(CC)CC#CCOC(=O)C(O)(c1ccccc1)C1CCCCC1` (centres unmarked) [free base form, oxybutynin]: in the test on bladder, the “response to Ach” value is listed as “no effect”.
